# Assay results published in patent publication US7163711B2, “Crystalline α-D-glucosyl α-D-galactoside, saccharide composition comprising the same, process for producing the same, and uses thereof” (Kabushiki Kaisha Hayashibara Seibutsu Kagaku Kenkyujo, priority 2002, dated 2007).
# Tests used:
# Assay type in all cases: physicochemical
# [1] = Moisture absorption test on amorphous α-D-glucosyl α-D-galactoside; conditions: 25° C.; for Diffraction spectrum: powdery X-ray diffraction
# Method: The crystalline powder of α-D-glucosyl α-D-galactoside obtained in Experiment 3 was examined for crystallinity by powdery X-ray diffraction analysis by using “GEIGERFLEX RAD-IIB™”, an X-ray diffraction analyzer using Cuk α ray commercialized by Rigaku Corporation, Tokyo, Japan, to obtain a spectrum as shown in FIG. 3 having peaks with diffraction angles (2θ) of at least 13.4°, 17.4°, 19.7°, and 22.3°. Crystallinity of the crystallized powder was calculated to be about 72.5% by using “Program for Crystallinity Analysis by Ruland method”, a computer program installed in the analyzer.
# (§1) A half gram aliquots of the crystalline powder of α-D-glucosyl α-D-galactoside obtained in Experiment 3 were placed in aluminum weighing cans, which had been precisely weighed in advance, and each weighing can was weighed. The weight of each weighing can was subtracted from the total weight to calculate the starting weight of the crystalline powder of α-D-glucosyl α-D-galactoside. Each weighing can with the crystalline powder of α-D-glucosyl α-D-galactoside was placed in a glass desiccator which the relative humidity was controlled to a level of 33–99% in advance, and stored at 25° C. for one to seven days while keeping at the desired humidity. After the moisture absorption test, each weighing can had been precisely weighted and calculated for increasing weight to obtain a moisture absorption level (%). In the test, the crystalline powder was macroscopically observed.
# The crystalline powder of α-D-glucosyl α-D-galactoside obtained in Experiment 3 was dissolved in water to obtain an aqueous solution with a concentration of 30% (w/w). The resultant aqueous solution was frozen and dried into an amorphous powder of α-D-glucosyl α-D-galactoside. Similar as in Experiment 10, the obtained amorphous powder was placed in aluminum weighing cans, and the cans were placed in a glass desiccator which the relative humidity was controlled to a level of 43–90% in advance, and stored at 25° C. for one to seven days while keeping at the desired humidity. After the moisture absorption test, moisture absorption level (%) was calculated similarly as in Experiment 10. In the test, the appearance of each powder was macroscopically observed. Samples after a storage for seven days were confirmed for their appearance by a powdery X-ray diffraction analysis in Experiment 4, and samples with crystals were examined for their crystallinity.
# [2] = Saturated concentration for water; conditions: shaken 48 hours, d.s.b.
# Method: A surplus volume of the crystalline powder of α-D-glucosyl α-D-galactoside obtained in Experiment 3 was added to 10 ml of distilled water, shaken at 25° C. or 40° C. for 48 hours, and filtrated to collect a crystalline powder, which is more than the solubility, by using a 0.45 μm filter, followed by collecting two filtrates (saturated solutions). Moisture content of the filtrates was measured by using a desiccating agent method described in “Standard Methods of Analysis in Food Safety Regulation, Chemistry” published by Japan Food Hygiene Association under the editorship of Ministry of Health, Labor and Welfare, 1991, to examine a saturated concentration of α-D-glucosyl α-D-galactoside.
# [3] = Moisture absorption test on crystalline α-D-glucosyl α-D-galactoside; conditions: 25° C.
# From the text: as §1
# [4] = relative humidity 43%, storage for one day
# [5] = relative humidity 43%, storage for seven days
# [6] = relative humidity 53%, storage for one day
# [7] = relative humidity 53%, storage for seven days
# [8] = relative humidity 60%, storage for one day
# [9] = relative humidity 60%, storage for seven days
# [10] = relative humidity 90%, storage for one day
# [11] = relative humidity 90%, storage for seven days
# [12] = relative humidity 33%, storage one day
# [13] = relative humidity 33%, storage seven days
# [14] = relative humidity 33%, storage three days
# [15] = relative humidity 33%, storage two days
# [16] = relative humidity 43%, storage one day
# [17] = relative humidity 43%, storage seven days
# [18] = relative humidity 43%, storage three days
# [19] = relative humidity 43%, storage two days
# [20] = relative humidity 53%, storage one day
# [21] = relative humidity 53%, storage seven days
# [22] = relative humidity 53%, storage three days
# [23] = relative humidity 53%, storage two days
# [24] = relative humidity 60%, storage one day
# [25] = relative humidity 60%, storage seven days
# [26] = relative humidity 60%, storage three days
# [27] = relative humidity 60%, storage two days
# [28] = relative humidity 75%, storage one day
# [29] = relative humidity 75%, storage seven days
# [30] = relative humidity 75%, storage three days
# [31] = relative humidity 75%, storage two days
# [32] = relative humidity 84%, storage one day
# [33] = relative humidity 84%, storage seven days
# [34] = relative humidity 84%, storage three days
# [35] = relative humidity 84%, storage two days
# [36] = relative humidity 90%, storage one day
# [37] = relative humidity 90%, storage seven days
# [38] = relative humidity 90%, storage three days
# [39] = relative humidity 90%, storage two days
structure (smiles),measurement,setting,value
"OC[C@H]1O[C@H](O[C@H]2O[C@H](CO)[C@@H](O)[C@H](O)[C@H]2O)[C@H](O)[C@@H](O)[C@H]1O [amorphous α-D-glucosyl α-D-galactoside, α-D-glucosyl α-D-galactoside]",A(%)* Moisture absorption level,[1]; [4],4.5%
same,Appearance (macroscopically observed),[1]; [4],Solidified
same,A(%)* Moisture absorption level,[1]; [5],6.3%
same,Appearance (macroscopically observed),[1]; [5],Solidified
same,Diffraction spectrum,[1]; [5],Amorphous
same,A(%)* Moisture absorption level,[1]; [6],3.5%
same,Appearance (macroscopically observed),[1]; [6],Wet on the surface
same,A(%)* Moisture absorption level,[1]; [7],1.8%
same,Appearance (macroscopically observed),[1]; [7],Hardened
same,Crystallinity,[1]; [7],67%
same,Diffraction spectrum,[1]; [7],Crystal monohydrate
same,A(%)* Moisture absorption level,[1]; [8],3.1%
same,Appearance (macroscopically observed),[1]; [8],Wet on the surface
same,A(%)* Moisture absorption level,[1]; [9],2.0%
same,Appearance (macroscopically observed),[1]; [9],Hardened
same,Crystallinity,[1]; [9],71%
same,Diffraction spectrum,[1]; [9],Crystal monohydrate
same,A(%)* Moisture absorption level,[1]; [10],13.2%
same,Appearance (macroscopically observed),[1]; [10],Partial deliquescence
same,A(%)* Moisture absorption level,[1]; [11],36.2%
same,Appearance (macroscopically observed),[1]; [11],Deliquescence
same,moisture absorption (in words),"[1]; relative humidity of 43–90%, one to seven days",remarkably absorbed moisture
"OC[C@H]1O[C@H](O[C@H]2O[C@H](CO)[C@@H](O)[C@H](O)[C@H]2O)[C@H](O)[C@@H](O)[C@H]1O [crystalline α-D-glucosyl α-D-galactoside, α-D-glucosyl α-D-galactoside]",saturated concentration in water,[2]; 25° C.,68.9 % (w/w)
same,saturated concentration in water,[2]; 40° C.,71.8 % (w/w)
same,A(%) Moisture absorption level,[3]; [12],0.0%
same,Appearance,[3]; [12],Unchanged
same,A(%) Moisture absorption level,[3]; [13],0.0%
same,Appearance,[3]; [13],Unchanged
same,A(%) Moisture absorption level,[3]; [14],0.0%
same,Appearance,[3]; [14],Unchanged
same,A(%) Moisture absorption level,[3]; [15],0.0%
same,Appearance,[3]; [15],Unchanged
same,A(%) Moisture absorption level,[3]; [16],0.0%
same,Appearance,[3]; [16],Unchanged
same,A(%) Moisture absorption level,[3]; [17],0.0%
same,Appearance,[3]; [17],Unchanged
same,A(%) Moisture absorption level,[3]; [18],0.0%
same,Appearance,[3]; [18],Unchanged
same,A(%) Moisture absorption level,[3]; [19],0.0%
same,Appearance,[3]; [19],Unchanged
same,A(%) Moisture absorption level,[3]; [20],0.0%
same,Appearance,[3]; [20],Unchanged
same,A(%) Moisture absorption level,[3]; [21],0.1%
same,Appearance,[3]; [21],Unchanged
same,A(%) Moisture absorption level,[3]; [22],0.0%
same,Appearance,[3]; [22],Unchanged
same,A(%) Moisture absorption level,[3]; [23],0.0%
same,Appearance,[3]; [23],Unchanged
same,A(%) Moisture absorption level,[3]; [24],0.1%
same,Appearance,[3]; [24],Unchanged
same,A(%) Moisture absorption level,[3]; [25],0.2%
same,Appearance,[3]; [25],Unchanged
same,A(%) Moisture absorption level,[3]; [26],0.1%
same,Appearance,[3]; [26],Unchanged
same,A(%) Moisture absorption level,[3]; [27],0.1%
same,Appearance,[3]; [27],Unchanged
same,A(%) Moisture absorption level,[3]; [28],0.1%
same,Appearance,[3]; [28],Unchanged
same,A(%) Moisture absorption level,[3]; [29],0.2%
same,Appearance,[3]; [29],Unchanged
same,A(%) Moisture absorption level,[3]; [30],0.1%
same,Appearance,[3]; [30],Unchanged
same,A(%) Moisture absorption level,[3]; [31],0.1%
same,Appearance,[3]; [31],Unchanged
same,A(%) Moisture absorption level,[3]; [32],3.2%
same,Appearance,[3]; [32],Hardened
same,A(%) Moisture absorption level,[3]; [33],11.0%
same,Appearance,[3]; [33],Hardened
same,A(%) Moisture absorption level,[3]; [34],6.1%
same,Appearance,[3]; [34],Hardened
same,A(%) Moisture absorption level,[3]; [35],4.4%
same,Appearance,[3]; [35],Hardened
same,A(%) Moisture absorption level,[3]; [36],6.9%
same,Appearance,[3]; [36],p.d.
same,A(%) Moisture absorption level,[3]; [37],42.1%
same,Appearance,[3]; [37],Deliquescence
same,A(%) Moisture absorption level,[3]; [38],19.2%
same,Appearance,[3]; [38],Deliquescence
same,A(%) Moisture absorption level,[3]; [39],11.8%
same,Appearance,[3]; [39],p.d.
same,moisture absorption (in words),"[3]; relative humidity of 75% or lower, one to seven days",did not absorb moisture
